Laboratory results: patent US7659399B2, “1-thia-2,4a-diaza-cyclopenta[b]napththalene-3,4-diones and related compounds as anti-infective agents” (Achillion Pharmaceuticals, Inc., priority 2005, dated 2010)
Structures can show the parent of a compound that is named as a salt.

Key:
[1] = system: CHO (Chinese hamster ovary); settings: CHO cells; positive control, known CC50; cited from earlier work
[2] = system: HEP 2 (laryngeal carcinoma); settings: HEP 2 cells; positive control, known CC50; cited from earlier work
[3] = system: E. coli ATCC 25922; test: Minimum inhibitory concentration (MIC) assay, broth microdilution; format: cell-based; settings: Escherichia coli, ATCC25922
Experimental: (§1) The antimicrobial activity of the compounds of the invention may be evaluated by a number of methods, including the following visual minimum inhibitory concentration (MIC) assay. This assay determines the minimum concentration of compound required to inhibit growth of a bacterial strain.
(§2) Whole-cell antibacterial activity is determined by broth microdilution using conditions recommended by the National Committee for Clinical Laboratory Standards (NCCLS).
(§3) Test compounds are dissolved in DMSO and diluted 1:50 in Mueller-Hinton II broth (Becton-Dickinson) to produce a 256 μg/ml stock solution. In a 96-well microtiter plate, the compound solution is serially two-fold diluted in Mueller-Hinton II broth. After the compounds are diluted, a […] aliquot of the test organism (˜1×10^6 cfu/mL) is added to each well of the microtiter plate. The final test concentrations range from 0.125-128 μg/mL. Inoculated plates are incubated in ambient air at 37° C. for 18 to 24 hours. The organisms selected for testing included laboratory strains S. aureus ATCC 29213 and E. coli ATCC 25922 (strains purchased from American Type Culture Collection, Manassas, Va.). The minimum inhibitory concentration (MIC) was determined as the lowest concentration of compound that inhibited visible growth of the test organism.

[4] = system: S. aureus ATCC 29213; test: as above; format: cell-based; settings: Staphylococcus aureus, ATCC29213
Experimental: as §1, §2, §3

[5] = target: T1, E. coli DNA gyrase (Escherichia coli, UniProt P0AES4+P0AES6); test: DNA gyrase supercoiling assay; format: biochemical
T1 construct: made in house; host or cells: E. coli
T1 sequence (P0AES4 whole entry, one chain of several): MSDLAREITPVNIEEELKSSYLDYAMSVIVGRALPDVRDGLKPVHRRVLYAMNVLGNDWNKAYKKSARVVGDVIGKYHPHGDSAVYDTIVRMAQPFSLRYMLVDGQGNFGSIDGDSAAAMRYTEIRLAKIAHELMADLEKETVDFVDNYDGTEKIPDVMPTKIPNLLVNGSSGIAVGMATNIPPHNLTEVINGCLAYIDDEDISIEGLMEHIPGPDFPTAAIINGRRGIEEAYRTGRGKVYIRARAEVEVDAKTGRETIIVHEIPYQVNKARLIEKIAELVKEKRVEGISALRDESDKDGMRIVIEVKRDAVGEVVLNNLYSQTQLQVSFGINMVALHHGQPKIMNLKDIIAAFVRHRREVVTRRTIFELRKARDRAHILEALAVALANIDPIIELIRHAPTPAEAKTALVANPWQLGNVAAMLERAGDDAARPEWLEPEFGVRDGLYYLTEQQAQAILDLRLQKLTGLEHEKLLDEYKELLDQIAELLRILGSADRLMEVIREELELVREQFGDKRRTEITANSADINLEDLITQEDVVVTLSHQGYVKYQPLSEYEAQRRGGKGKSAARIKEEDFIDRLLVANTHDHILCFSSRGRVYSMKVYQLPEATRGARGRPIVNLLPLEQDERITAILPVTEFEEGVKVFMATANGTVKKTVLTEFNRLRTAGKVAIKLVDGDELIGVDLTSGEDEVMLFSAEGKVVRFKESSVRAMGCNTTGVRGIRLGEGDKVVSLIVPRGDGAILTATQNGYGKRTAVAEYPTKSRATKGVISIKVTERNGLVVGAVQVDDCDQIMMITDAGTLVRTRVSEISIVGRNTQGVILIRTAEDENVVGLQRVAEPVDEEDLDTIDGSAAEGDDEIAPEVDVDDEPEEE
Experimental: Enzyme activity is measured by a supercoiling assay that monitors the ATP-dependent conversion of relaxed pBR322 DNA to the supercoiled form. Analysis is done by gel electrophoresis through 1% agarose/TBE gel. DNA is visualized with an Alpha Imager 2200 Analysis System and the IC50 determined by nonlinear regression analysis with Graphpad Prism software. E. coli DNA gyrase enzyme subunits, gyrA and gyrB, are purified to homogeneity from over-expression constructs in E. coli.

[6] = target: T2, S. aureus topoisomerase IV (Staphylococcus aureus, UniProt P0C1S7+P0C1U9); test: Topoisomerase IV decatenation assay; format: biochemical; settings: decatenation of kinetoplast DNA; read-out: inhibition of S. aureus topoisomerase IV activity IC50
T2 construct: made in house; host or cells: E. coli
T2 sequence (P0C1U9 whole entry): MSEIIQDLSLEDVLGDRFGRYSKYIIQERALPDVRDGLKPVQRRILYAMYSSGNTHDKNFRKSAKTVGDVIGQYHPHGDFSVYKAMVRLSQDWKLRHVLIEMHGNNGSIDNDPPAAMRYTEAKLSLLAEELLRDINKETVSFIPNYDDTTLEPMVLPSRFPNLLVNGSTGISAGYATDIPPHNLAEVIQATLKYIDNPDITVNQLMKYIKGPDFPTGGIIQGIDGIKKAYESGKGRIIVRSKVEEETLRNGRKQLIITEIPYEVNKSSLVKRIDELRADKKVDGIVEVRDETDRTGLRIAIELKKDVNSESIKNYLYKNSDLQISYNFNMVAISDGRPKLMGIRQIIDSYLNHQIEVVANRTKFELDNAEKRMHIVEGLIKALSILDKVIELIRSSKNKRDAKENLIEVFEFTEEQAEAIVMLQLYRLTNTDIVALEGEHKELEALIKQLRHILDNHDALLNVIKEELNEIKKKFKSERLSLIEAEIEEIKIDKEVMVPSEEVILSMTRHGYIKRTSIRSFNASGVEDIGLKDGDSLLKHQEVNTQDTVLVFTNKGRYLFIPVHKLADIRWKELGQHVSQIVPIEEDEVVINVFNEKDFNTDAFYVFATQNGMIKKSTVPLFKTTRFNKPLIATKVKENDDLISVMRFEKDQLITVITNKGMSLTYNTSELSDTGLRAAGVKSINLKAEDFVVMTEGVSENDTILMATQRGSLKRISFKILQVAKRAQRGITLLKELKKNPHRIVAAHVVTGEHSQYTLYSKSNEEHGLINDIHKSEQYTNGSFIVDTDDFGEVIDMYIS
T2 sequence (P0C1S7 whole entry): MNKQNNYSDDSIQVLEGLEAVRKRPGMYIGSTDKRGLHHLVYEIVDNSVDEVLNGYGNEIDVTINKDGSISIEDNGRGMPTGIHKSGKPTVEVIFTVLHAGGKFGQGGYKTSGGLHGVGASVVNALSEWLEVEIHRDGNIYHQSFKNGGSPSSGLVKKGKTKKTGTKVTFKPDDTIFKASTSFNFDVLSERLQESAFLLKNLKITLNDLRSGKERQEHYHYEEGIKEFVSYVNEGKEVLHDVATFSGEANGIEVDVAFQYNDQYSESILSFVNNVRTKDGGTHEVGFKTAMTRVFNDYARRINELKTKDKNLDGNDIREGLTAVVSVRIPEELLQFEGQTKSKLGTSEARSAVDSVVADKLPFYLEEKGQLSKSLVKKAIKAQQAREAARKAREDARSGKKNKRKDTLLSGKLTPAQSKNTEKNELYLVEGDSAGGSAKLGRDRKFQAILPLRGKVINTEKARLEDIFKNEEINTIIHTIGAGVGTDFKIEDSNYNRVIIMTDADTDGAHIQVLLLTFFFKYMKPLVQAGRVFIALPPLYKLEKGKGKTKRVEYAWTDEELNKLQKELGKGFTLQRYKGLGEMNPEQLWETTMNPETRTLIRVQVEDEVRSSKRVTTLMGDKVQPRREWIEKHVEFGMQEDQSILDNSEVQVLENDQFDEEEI
Experimental: Enzyme activity is measured by a decatenation assay that monitors the ATP-dependent unlinking of DNA minicircles from kinetoplast DNA. Analysis is done by gel electrophoresis through 1% agarose/TBE gel. DNA is visualized with an Alpha Imager 2200 Analysis System and the IC50 determined by nonlinear regression analysis with Graphpad Prism software. S. aureus topoismerase IV enzyme subunits, grlA and grlB, are purified to homogeneity from over-expression plasmids in E. coli.

[7] = target: S. aureus DNA gyrase (Staphylococcus aureus, UniProt P0A0K8+P20831); test: DNA gyrase supercoiling assay; format: biochemical; settings: do not inhibit
Chain of S. aureus DNA gyrase (P20831 whole entry): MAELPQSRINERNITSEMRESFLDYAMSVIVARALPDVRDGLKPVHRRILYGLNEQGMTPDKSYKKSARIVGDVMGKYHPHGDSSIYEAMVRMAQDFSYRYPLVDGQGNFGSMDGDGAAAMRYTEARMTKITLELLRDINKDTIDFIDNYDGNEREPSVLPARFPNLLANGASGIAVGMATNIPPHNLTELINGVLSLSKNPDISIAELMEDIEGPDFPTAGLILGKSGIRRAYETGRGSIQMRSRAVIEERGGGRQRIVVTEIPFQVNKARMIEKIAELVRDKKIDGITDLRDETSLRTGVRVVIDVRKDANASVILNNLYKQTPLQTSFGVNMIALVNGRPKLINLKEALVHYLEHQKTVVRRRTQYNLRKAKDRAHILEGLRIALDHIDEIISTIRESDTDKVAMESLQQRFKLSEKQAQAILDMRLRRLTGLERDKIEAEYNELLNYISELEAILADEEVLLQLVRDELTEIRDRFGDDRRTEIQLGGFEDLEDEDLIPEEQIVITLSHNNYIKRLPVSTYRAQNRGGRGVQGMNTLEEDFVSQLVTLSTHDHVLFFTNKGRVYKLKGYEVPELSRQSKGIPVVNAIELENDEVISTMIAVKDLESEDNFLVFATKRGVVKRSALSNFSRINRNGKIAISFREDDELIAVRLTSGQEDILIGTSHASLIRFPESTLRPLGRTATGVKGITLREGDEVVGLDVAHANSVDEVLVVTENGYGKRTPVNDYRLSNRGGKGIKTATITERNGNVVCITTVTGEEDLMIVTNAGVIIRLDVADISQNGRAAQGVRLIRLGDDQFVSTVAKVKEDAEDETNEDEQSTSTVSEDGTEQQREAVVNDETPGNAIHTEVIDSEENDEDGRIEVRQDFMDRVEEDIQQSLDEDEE
Chain of S. aureus DNA gyrase (P0A0K8 whole entry): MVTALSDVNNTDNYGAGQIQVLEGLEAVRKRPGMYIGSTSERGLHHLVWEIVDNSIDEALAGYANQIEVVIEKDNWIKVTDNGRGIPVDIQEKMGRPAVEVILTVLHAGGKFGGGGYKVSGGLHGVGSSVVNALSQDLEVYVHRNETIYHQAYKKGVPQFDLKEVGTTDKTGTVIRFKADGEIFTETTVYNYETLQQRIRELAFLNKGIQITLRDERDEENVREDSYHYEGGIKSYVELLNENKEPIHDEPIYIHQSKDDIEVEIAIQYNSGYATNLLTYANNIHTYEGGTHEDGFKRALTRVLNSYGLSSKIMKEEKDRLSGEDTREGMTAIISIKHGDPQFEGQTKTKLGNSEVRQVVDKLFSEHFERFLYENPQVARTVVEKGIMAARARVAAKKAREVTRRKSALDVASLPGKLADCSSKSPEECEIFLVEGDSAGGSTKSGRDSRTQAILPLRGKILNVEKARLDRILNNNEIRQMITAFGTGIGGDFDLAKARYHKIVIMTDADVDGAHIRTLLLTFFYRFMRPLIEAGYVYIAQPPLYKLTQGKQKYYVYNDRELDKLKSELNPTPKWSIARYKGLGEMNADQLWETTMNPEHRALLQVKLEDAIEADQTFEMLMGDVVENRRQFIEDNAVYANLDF

| Structure (SMILES) | melting point | CC50 [1] [µM] | CC50 [2] [µM] | MIC [3] [µg/mL] | MIC [4] [µg/mL] | IC50 [5] [µM] | IC50 [6] [µM] | IC50 [7] [µM] |
| --- | --- | --- | --- | --- | --- | --- | --- | --- |
| CCc1c2s[nH]c(=O)c2c(=O)n2ccc(-c3cc(C)nc(C)c3)cc12 (as salt: hydrochloride) [Compound 9, 7-(2,6-Dimethylpyridin-4-yl)-9-ethyl-1-thia-2,4a-diaza-cyclopenta[b]naphthalene-3,4-dione hydrochloride] | 279 to 280 °C (dec.) |  |  |  |  |  |  |  |
| CC(C)(C)c1ccc(C(O)CCCN2CCC(C(O)(c3ccccc3)c3ccccc3)CC2)cc1 (centres unmarked) [Terfenadine] |  | 4.3 to 6.5 | 3 to 5 |  |  |  |  |  |
| CCc1c2s[nH]c(=O)c2c(=O)n2ccc(-c3cc(C)nc(C)c3)cc12 [Compound 9, 7-(2,6-Dimethylpyridin-4-yl)-9-ethyl-1-thia-2,4a-diaza-cyclopenta[b]naphthalene-3,4-dione hydrochloride] |  |  |  | 10 | 10 | < 1 | < 10 | > 200 |
| CCc1c2s[nH]c(=O)c2c(=O)n2ccc(-c3ccncc3)cc12 (as salt: hydrochloride) [Compound 8, 9-Ethyl-7-pyridin-4-yl-1-thia-2,4a-diaza-cyclopenta[b]naphthalene-3,4-dione hydrochloride] | 289 to 290 °C (dec.) |  |  |  |  |  |  |  |
| CCc1c2s[nH]c(=O)c2c(=O)n2ccc(-c3ccncc3)cc12 [Compound 8, 9-Ethyl-7-pyridin-4-yl-1-thia-2,4a-diaza-cyclopenta[b]naphthalene-3,4-dione hydrochloride] |  |  |  | 10 | 10 | < 1 | < 10 | > 200 |
